Assay [1] concerns JAK2. Description: Human whole blood assay, JAK2. The format is cell-based. Conditions: cytokine-induced STAT phosphorylation. On the procedure: (§1) A stock solution of Compound 1 obtained according to Preparation Example 1 was diluted with distilled water and then serially diluted at ⅕ with 4% DMSO. 5 μL of test material was added to 100 μL of whole blood collected using a 1.7 mL eppendorf tube, mixed, and incubated at 37° C. for 45 minutes.
(§2) IL-6 (10 μg/ml) was diluted with 0.1% BSA/DW to reach 1 μg/mL each. 5 μL of IL-6 was added (at a final concentration of 50 ng/mL) and incubated at 37° C. for 15 minutes. At this time, 5 μL of DPBS was added as a non-stimulated control group. Lyse/fix buffer 5× was diluted 1× in distilled water and used. […]
(§3) For double staining of CD4 and pSTATI, anti-[…] and anti-pSTATI were mixed in a staining buffer and added to each of the samples. […] On the next day, the results were analyzed using FACSCanto II. […]
(§4) The numerical values analyzed by FlowJo were calculated to obtain IC50 values using GraphPad Prism 5 software (product name).
(§5) No treatment response (NTR) was set as a reference, and the degree of the phosphorylation of STAT induced by cytokines was converted into a relative ratio (% control group). A dose-response plot was obtained for each concentration-dependent activity of each test material using GraphPad Prism (version 5.0) and ICso values were calculated.

Assay [2] deals with JAK1. Description: Human whole blood assay, JAK1. The class given is cell-based. Conditions: cytokine-induced STAT phosphorylation. The procedure:
as §1, §2, §3, §4, §5

Assay [3] concerns JAK1, 3. Description: In vitro cell assay, JAK1, 3 (NK-92 cells, IL-2). The format is cell-based. To be noted: NK92, read-out: IC50, Cell Biology JAK1, 3. The procedure:
In addition, NK-92 cell is a natural killer cell line, which grows in an IL-2-dependent way, and is derived from peripheral blood mononuclear cells, and thus is suitable for evaluating the activity of JAK1 and JAK3 by IL-2. Thus, in order to evaluate the activity of JAK1 and JAK3, NK-92 cells were prepared.
The test material was dissolved in DMSO, prepared at 10 mM, divided by 20 μL each, and stored at −20° C.
• EPO: 2000 U/0.5 mL of stock was divided by 50 μL each and stored under refrigeration. • IL-2: 200 μg/ml of stock was prepared, divided by 5 μL each, and stored, and then treated at 2 ng/ml. (IL-2 1 μg/ml=13000 U/ml) • IFN-alphaB2: […] of stock was diluted and used, and then treated to reach 30000 U/ml.
• UT-7/EPO cell assay: MEM-alpha (Gibco, cat #12561-056) was prepared to contain 5% FBS and 1% P/S before use. • NK-92 cell assay: A preparation was made to contain HBSS, 1% FBS and 1% P/S before use. • U2OS cell assay: A preparation was made to contain HBSS, 1% FBS and 1% P/S before use.
The cultured cells were centrifuged (1,000 rpm, 5 minutes) and washed with PBS. The size of cell lines and appropriate reaction concentration thereof were set and the cell lines were seeded in a 96-well plate at 1×10^5 to 10^6 cells/well (50 μL/well). […]

For assay [4], the system named is anti-CD3 and anti-CD28-activated PBMC of patients with atopic dermatitis. Description: IL-13, IL-10 and TNF-α secretion in activated PBMC of atopic patients. The class given is cell-based, human. Conditions: 100 nM and 1,000 nM, 24 hours, FIG. 9. The procedure: 50 μL of DNase I (2000 unit/mL) was added to 50 mL of cell culture medium and mixed. (Since enzyme and cells were used, the medium was heated in a 37° C. water bath before use.) In addition, PMBC of atopic patients was rapidly dissolved in a 37° C. water bath.
PMBC was slowly flowed into the prepared medium, and reacted at 37° C. for five minutes. Centrifugation was performed using a centrifuge at 200 rpm for 15 minutes, after which supernatants were removed, suspended in 1 mL of cell culture medium, and counted.
Cells were diluted in cell culture medium and seeded in a 96-well plate to reach 2×10^5 cells/100 μL/well.
50 μL of PBMC activation medium (0.5 μg/ml CD3 antibody, 5 μg/ml CD28 antibody) was added to every well except the negative control well. (50 μL of cell culture medium was added to each negative control well.)
50 μL of the test material was added to each well according to each concentration. (final concentration of 1 nM, 10 nM, 100 nM, 1,000 nM, 50 μL of cell culture medium was added to each negative control well.)
After incubation in a 5% CO2 incubator at 37° C. for 24 hours, the plates were centrifuged at 200 rpm for 15 minutes as they were, and 150 μL of the suspension was taken, placed in a 96-well round bottom plate, and stored in a deep freezer at minus 80° C.
After the culture supernatant samples were dissolved, ELISA was performed according to the data sheet protocol of ELISA kit.

For the compound `C[C@@H]1CN(C(=O)CC#N)CC=C1c1cc(NC(=O)C2CC2)nc2[nH]ccc12` [Compound 1, (S)—N-(4-(1-(2-cyanoacetyl)-3-methyl-1,2,3,6-tetrahydropyridin-4-yl)-1H-pyrrolo[2,3-b]pyridin-6-yl)cyclopropanecarboxamide], the results for the IC50 in assay [1], in assay [2] and in assay [3] were 774 nM, 70 nM and 163 nM, respectively. Moreover, the IL-10 secretion entry in assay [4] is “significantly reduced”. The IL-13 secretion entry in assay [4] is “significantly reduced”. The TNF-α secretion entry in assay [4] is “significantly reduced”.

Source of the values: US20240300943A1, “NOVEL SALTS OF HETEROCYCLIC COMPOUND AS PROTEIN KINASE INHIBITOR AND USES THEREOF” (HK INNO.N CORPORATION, priority 2021, published 2024).
